The record followed here is patent publication US20240358692A1, “TREATMENT OF SCLERODERMA” (Aisa Pharma, Inc., priority 2023, published 2024).

Assay [1] has as its system participants with SSc-RP. In words: Average pain score recorded during weekly RP attacks (11-point Likert scale). The settings on record: Tadalafil 5 mg (n = 4); Table G. The class given is in vivo, human. The source says: The absolute change in average pain score (11-point Likert scale) of weekly RP attacks from baseline to the end of each Dosing Period will be a secondary outcome variable. The sponsor-developed participant-informed diary will be used to record data. The average pain score of weekly RP attacks is defined as the total pain scores divided by total number of RP attacks within the last 7 days of each dosing period. Average of the last 7 days of screening assessments will be used as baseline for the analysis of all periods. The variable will be calculated similar to frequency data as before.

The test system of assay [2] is participants with SSc-RP. The experiment in a line: SHAQ - Visual Analog Scale - Breathing Problems. On the set-up: Visual Analog Scale-Breathing Problems, In Clinic Visit (Day 12), Mean / Visual Analog Scale-Breathing Problems, In Clinic Visit (Day 12), Median / SHAQ Visual Analogue Scale - Breathing Problems, In-Clinic Visit (Day 12), Mean / SHAQ Visual Analogue Scale - Breathing Problems, In-Clinic Visit (Day 12), Median / SHAQ Visual Analogue Scale - Breathing Problems, Change from Baseline, Median: scale not given here. The class given is in vivo, human. From the text:
The standard, validated, patient reported outcome measures tool for SSc patients, the Scleroderma Health Assessment Questionnaire (SHAQ), will be used to assess the participant qualify of life. Details are attached in the Appendix. The participant quality of life will be scored, and a disability index calculated for each questionnaire completed by the patient at Screening and each in-clinic visit. The absolute change in participant quality of life from baseline to the end of each dosing period will be calculated similar to frequency data as before.
The standard, validated, patient reported outcome measures tool for SSc patients, the SHAQ, was collected at the time points specified in the study schedules (FIG. 2 and FIGS. 4A and 4B) to assess the participant's quality of life. The SHAQ included a Raynaud's VAS that will also be reported separately.

Setting [3] is: Modified ITT Population-Part A, dose cilnidipine 10 mg, tadalafil 5 mg, alone or combined as labelled.
Setting [4] is: Tadalafil 5 mg, SSc patients, PP, Part A.

For `CN1CC(=O)N2[C@H](c3ccc4c(c3)OCO4)c3[nH]c4ccccc4c3C[C@@H]2C1=O` [Tadalafil], in the assay on participants with SSc-RP [1], the “Average Pain Score Change From Baseline [Mean (SD)]” value is listed as 0.37. Besides, in the assay on participants with SSc-RP [2] (Modified ITT Population-Part A, Day 12, dose cilnidipine 10 mg, tadalafil 5 mg, alone or combined as labelled), the “Visual Analog Scale-Breathing Problems, Change from Baseline, Mean” value was 0.500. In the assay on participants with SSc-RP [2] (setting [3]), the “Visual Analog Scale-Breathing Problems, In Clinic Visit (Day 12), Mean” value stood at 4.300 and the “Visual Analog Scale-Breathing Problems, In Clinic Visit (Day 12), Median” value was 4.000. In addition, in the assay with participants with SSc-RP [2] (setting [4]), the “SHAQ VAS Breathing Problems, Change from Baseline, Max” value is on record as 2.80; the “SHAQ VAS Breathing Problems, Change from Baseline, Mean” value came to 0.500; the “SHAQ VAS Breathing Problems, Change from Baseline, Median” value is reported as 1.050; the “SHAQ VAS Breathing Problems, Change from Baseline, Min” value was −2.90,. Besides, in the assay with participants with SSc-RP [2] (setting [4]), the “SHAQ VAS Breathing Problems, Change from Baseline, Q1” value is given as −1.450,; the “SHAQ VAS Breathing Problems, Change from Baseline, Q3” value is listed as 2.450; the “SHAQ VAS Breathing Problems, Day 12, Max” value is reported as 9.20; the “SHAQ VAS Breathing Problems, Day 12, Mean” value turned out to be 4.300. In the assay with participants with SSc-RP [2] (setting [4]), the “SHAQ VAS Breathing Problems, Day 12, Median” value worked out at 4.000; the “SHAQ VAS Breathing Problems, Day 12, Min” value is listed as 0.00,; the “SHAQ VAS Breathing Problems, Day 12, Q1” value is 0.100,; the “SHAQ VAS Breathing Problems, Day 12, Q3” value was found to be 8.500. Also, in the assay with participants with SSc-RP [2] (setting [4]), the “SHAQ VAS Breathing Problems, Percent Change from Baseline, Max” value was 56.0; the “SHAQ VAS Breathing Problems, Percent Change from Baseline, Mean” value is given as −2.66; the “SHAQ VAS Breathing Problems, Percent Change from Baseline, Median” value was found to be 29.58; the “SHAQ VAS Breathing Problems, Percent Change from Baseline, Min” value was −93.5,. In the assay on participants with SSc-RP [2] (setting [4]), the “SHAQ VAS Breathing Problems, Percent Change from Baseline, Q1” value was −93.55, and the “SHAQ VAS Breathing Problems, Percent Change from Baseline, Q3” value came to 56.00.
